Activity calls are given as the source filed them. The calls are words filed in the database; no cut-off is given here.
Columns and labels:
HCT-116 [1] = test: Antiproliferative activity against human HCT116 cells at 30 uM for 24 hrs by MTT assay; type: functional
HCT-116 [2] = test: Antiproliferative activity against human HCT116 cells at 100 uM for 24 hrs by MTT assay; type: functional
EC9706 [3] = test: (§1) Antiproliferative activity against human EC9706 cells at 75 uM for 24 hrs by MTT assay; type: functional
EC9706 [4] = test: (§2) Antiproliferative activity against human EC9706 cells at 100 uM for 24 hrs by MTT assay; type: functional
[5] = Cell cycle arrest in human EC9706 cells assessed as accumulation in G2/M phase at 30 uM after 12 hrs; type: functional, cell-based
[6] = Cell cycle arrest in human EC9706 cells assessed as accumulation in G2/M phase at 30 uM after 18 hrs; type: functional, cell-based
HCT-116 [7] = test: Induction of apoptosis in human HCT116 cells assessed as morphological changes at 100 uM after 24 hrs; type: functional, cell-based
EC9706 [8] = test: Induction of apoptosis in human EC9706 cells assessed as morphological changes at 100 uM after 24 hrs; type: functional, cell-based
[9] = as §1; type: functional
[10] = as §2; type: functional
HCT-116 [11] = test: Cell cycle arrest in human HCT116 cells assessed as accumulation in G2/M phase at 30 uM after 12 hrs; type: functional, cell-based
HCT-116 [12] = test: Induction of apoptosis in human HCT116 cells assessed as increase in cell debris at 30 uM after 18 hrs; type: functional, cell-based

Row | Compound | Activity (HCT-116 [1]) | Activity (HCT-116 [2]) | Activity (EC9706 [3]) | Activity (EC9706 [4]) | Activity [5] | Activity [6] | Activity (HCT-116 [7]) | Activity (EC9706 [8]) | Activity [9] [%] | Activity [10] [%] | Activity (HCT-116 [11]) | Activity (HCT-116 [12])
1 | N=C(N)NCCC[C@H](NC(=O)[C@H](CCCNC(=N)N)NC(=O)[C@H](CCCNC(=N)N)NC(=O)[C@H](CCC(N)=O)NC(=O)[C@H](CCCNC(=N)N)NC(=O)[C@H](CCCNC(=N)N)NC(=O)[C@H](CCCCN)NC(=O)[C@H](CCCCN)NC(=O)[C@@H](N)CCCNC(=N)N)C(=O)O | inactive | inactive | inactive | inactive | inactive | inactive | inactive | inactive |  |  |  | 
2 | H-KAQIRAMECNIL-OH | inactive | inactive | inactive | inactive |  |  |  |  |  |  |  | 
3 | H-KAQIRAMECNILGRKKRRQRRR-OH | 55% | 16% |  |  | Active | Active | Active | Active | 69 | 52 | Active | Active
